The experiment addresses PI3Kδ (p110δ/p85α) (Homo sapiens (Human), UniProt O00329). The experiment can be described thus: PI3Kδ scintillation proximity assay (Example A3). It counts as biochemical. The settings on record: 20 μM ATP, 20 μM PIP2, 4 nM PI3Kδ; read-out: PI3Kδ SPA IC50. How it is done: [γ-^33P]ATP (10 mCi/mL) was purchased from Perkin-Elmer (Waltham, Mass.). […] PI3Kδ (p110δ/p85α) was purchased from Millipore (Bedford, Mass.). ATP, MgCl2, DTT, EDTA, MOPS and CHAPS were purchased from Sigma-Aldrich (St. Louis, Mo.). Wheat Germ Agglutinin (WGA) YSi SPA Scintillation Beads was purchased from GE healthcare life sciences (Piscataway, N.J.).
The kinase reaction was conducted in polystyrene 384-well matrix white plate from Thermo Fisher Scientific in a final volume of 25 μL. Inhibitors were first diluted serially in DMSO and added to the plate wells before the addition of other reaction components. The final concentration of DMSO in the assay was 0.5%. The PI3K assays were carried out at room temperature in 20 mM MOPS, pH 6.7, 10 mM MgCl2, 5 mM DTT and CHAPS 0.03%. Reactions were initiated by the addition of ATP, the final reaction mixture consisted of 20 μM PIP2, 20 μM ATP, 0.2 μCi [γ-^33P]ATP, 4 nM PI3Kδ. […] 25 mM EDTA, 400 μM ATP. The final concentration of SPA beads was 1.0 mg/mL. After the plate sealing, plates were shaken overnight at room temperature and centrifuged at 1800 rpm for 10 minutes, the radioactivity of the product was determined by scintillation counting on Topcount (Perkin-Elmer). IC50 determination was performed by fitting the curve of percent control activity versus the log of the inhibitor concentration using the GraphPad Prism 3.0 software.
Background: SPA uses beads or plates that emit light when radiolabelled molecules are held near them.

Chain of PI3Kδ (p110δ/p85α) (O00329 whole entry): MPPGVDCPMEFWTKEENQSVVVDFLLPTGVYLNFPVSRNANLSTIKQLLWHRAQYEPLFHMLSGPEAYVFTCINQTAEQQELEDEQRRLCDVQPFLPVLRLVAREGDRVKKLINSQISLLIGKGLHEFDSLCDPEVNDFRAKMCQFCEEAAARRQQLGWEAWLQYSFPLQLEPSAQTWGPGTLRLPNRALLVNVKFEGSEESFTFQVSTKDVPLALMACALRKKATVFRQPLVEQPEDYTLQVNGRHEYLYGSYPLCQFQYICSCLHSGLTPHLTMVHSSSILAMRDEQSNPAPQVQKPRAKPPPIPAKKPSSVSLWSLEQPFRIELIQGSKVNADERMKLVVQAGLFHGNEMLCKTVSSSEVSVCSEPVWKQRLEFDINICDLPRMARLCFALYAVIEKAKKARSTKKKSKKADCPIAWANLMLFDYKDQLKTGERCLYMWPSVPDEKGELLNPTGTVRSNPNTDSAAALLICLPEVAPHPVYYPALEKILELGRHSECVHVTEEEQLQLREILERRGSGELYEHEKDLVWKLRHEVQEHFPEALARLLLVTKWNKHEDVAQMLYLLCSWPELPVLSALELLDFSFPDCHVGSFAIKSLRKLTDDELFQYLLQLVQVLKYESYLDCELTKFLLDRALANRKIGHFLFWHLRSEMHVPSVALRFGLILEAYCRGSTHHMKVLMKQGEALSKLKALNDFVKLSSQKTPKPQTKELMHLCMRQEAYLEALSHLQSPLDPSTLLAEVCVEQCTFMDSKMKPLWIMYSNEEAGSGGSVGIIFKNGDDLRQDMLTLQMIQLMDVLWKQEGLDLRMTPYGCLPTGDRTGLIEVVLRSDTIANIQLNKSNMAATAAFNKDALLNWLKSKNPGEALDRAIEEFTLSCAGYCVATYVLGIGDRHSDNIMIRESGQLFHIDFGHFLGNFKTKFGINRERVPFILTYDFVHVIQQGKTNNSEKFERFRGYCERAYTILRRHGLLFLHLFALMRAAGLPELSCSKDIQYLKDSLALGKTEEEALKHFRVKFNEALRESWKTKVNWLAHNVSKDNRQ
Chain of PI3Kδ (p110δ/p85α) (P27986 whole entry partner): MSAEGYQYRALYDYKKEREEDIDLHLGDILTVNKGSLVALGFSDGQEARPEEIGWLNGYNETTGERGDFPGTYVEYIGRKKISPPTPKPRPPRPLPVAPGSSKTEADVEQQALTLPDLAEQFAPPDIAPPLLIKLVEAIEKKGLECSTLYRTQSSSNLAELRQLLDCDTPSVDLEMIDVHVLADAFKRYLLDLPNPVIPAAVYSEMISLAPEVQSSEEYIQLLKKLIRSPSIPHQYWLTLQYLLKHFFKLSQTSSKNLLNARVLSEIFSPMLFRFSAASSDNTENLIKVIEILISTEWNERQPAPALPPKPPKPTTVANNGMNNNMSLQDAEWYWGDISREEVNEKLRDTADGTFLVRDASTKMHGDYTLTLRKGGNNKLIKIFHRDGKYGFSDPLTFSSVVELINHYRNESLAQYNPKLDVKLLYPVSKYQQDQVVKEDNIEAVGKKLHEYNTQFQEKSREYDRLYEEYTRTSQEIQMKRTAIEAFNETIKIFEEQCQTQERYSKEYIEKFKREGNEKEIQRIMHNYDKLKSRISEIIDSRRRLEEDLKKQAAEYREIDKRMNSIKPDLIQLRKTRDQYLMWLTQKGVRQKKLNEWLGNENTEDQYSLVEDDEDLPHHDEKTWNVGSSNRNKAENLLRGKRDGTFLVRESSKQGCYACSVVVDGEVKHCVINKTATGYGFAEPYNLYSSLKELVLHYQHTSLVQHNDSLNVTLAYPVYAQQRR

What is called IC50 is the concentration at which inhibition is half-maximal. Turning to `CCOc1c(C(C)n2nc(-c3cnc(N)nc3)c3c(N)ncnc32)cc(Cl)c(C)c1-c1ccc(C(=O)N(C)C)nc1` (racemic) [Example 58, 5-(3-{1-[4-amino-3-(2-aminopyrimidin-5-yl)-1H-pyrazolo[3,4-d]pyrimidin-1-yl]ethyl}-5-chloro-2-ethoxy-6-methylphenyl)-N,N-dimethylpyridine-2-carboxamide tris(trifluoroacetate)], the IC50 was at most 10 nM.

For `CCOc1c(C(C)n2nc(-c3ccncc3)c3c(N)ncnc32)cc(Cl)c(C)c1-c1ccc(C(=O)N(C)C)nc1` (racemic) [Example 60, 5-{3-[1-(4-amino-3-pyridin-4-yl-1H-pyrazolo[3,4-d]pyrimidin-1-yl)ethyl]-5-chloro-2-ethoxy-6-methylphenyl}-N,N-dimethylpyridine-2-carboxamide tris(trifluoroacetate)], the IC50 is at most 10 nM. In the case of `CCOc1c(C(C)n2nc(-c3cccnc3)c3c(N)ncnc32)cc(Cl)c(C)c1-c1ccc(C(=O)N(C)C)nc1` (racemic) [Example 61, 5-{3-[1-(4-amino-3-pyridin-3-yl-1H-pyrazolo[3,4-d]pyrimidin-1-yl)ethyl]-5-chloro-2-ethoxy-6-methylphenyl}-N,N-dimethylpyridine-2-carboxamide tris(trifluoroacetate)] it was at most 10 nM; in that of `CCOc1c(C(C)n2nc(-c3cncc(C(=O)N(C)C)c3)c3c(N)ncnc32)cc(Cl)c(C)c1-c1ccc(C(=O)N(C)C)nc1` (racemic) [Example 62, 5-{3-[1-(4-amino-3-{5-[(dimethylamino)carbonyl]pyridin-3-yl}-1H-pyrazolo[3,4-d]pyrimidin-1-yl)ethyl]-5-chloro-2-ethoxy-6-methylphenyl}-N,N-dimethylpyridine-2-carboxamide tris(trifluoroacetate)], at most 10 nM. Under `COc1c(C(C)n2nc(C)c3c(N)ncnc32)cc(Cl)c(F)c1C1CN(CC(C)(C)O)C1` (racemic) [Example 70, 1-(3-{3-[1-(4-Amino-3-methyl-1H-pyrazolo[3,4-d]pyrimidin-1-yl)ethyl]-5-chloro-6-fluoro-2-methoxyphenyl}azetidin-1-yl)-2-methylpropan-2-ol] stands at most 10 nM; under `COc1c(C(C)n2nc(C(F)F)c3c(N)ncnc32)cc(C#N)c(F)c1C1CN(CCO)C1` (racemic) [Example 78, 5-{1-[4-Amino-3-(difluoromethyl)-1H-pyrazolo[3,4-d]pyrimidin-1-yl]ethyl}-2-fluoro-3-[1-(2-hydroxyethyl)azetidin-3-yl]-4-methoxybenzonitrile], at most 10 nM. `CCOc1c(C(C)n2nc(CC)c3c(N)ncnc32)cc(Cl)c(C)c1-c1ccc(C(=O)N(C)C)nc1` (racemic) [Example 81, 5-{3-[1-(4-Amino-3-ethyl-1H-pyrazolo[3,4-d]pyrimidin-1-yl)ethyl]-5-chloro-2-ethoxy-6-methylphenyl}-N,N-dimethylpyridine-2-carboxamide]: the IC50 was in the range of 50 to 200 nM.

Take `CCOc1c(C(C)n2nc(CO)c3c(N)ncnc32)cc(Cl)c(C)c1-c1ccc(C(=O)N(C)C)nc1` (racemic) [Example 83, 5-(3-{1-[4-Amino-3-(hydroxymethyl)-1H-pyrazolo[3,4-d]pyrimidin-1-yl]ethyl}-5-chloro-2-ethoxy-6-methylphenyl)-N,N-dimethylpyridine-2-carboxamide bis(trifluoroacetate)]: the IC50 was at most 10 nM.

`CCOc1c(C(C)n2nc(CNC)c3c(N)ncnc32)cc(Cl)c(C)c1-c1ccc(C(=O)N(C)C)nc1` (racemic) [Example 84, 5-[3-(1-{4-Amino-3-[(methylamino)methyl]-1H-pyrazolo[3,4-d]pyrimidin-1-yl}ethyl)-5-chloro-2-ethoxy-6-methylphenyl]-N,N-dimethylpyridine-2-carboxamide tris(trifluoroacetate)]: the IC50 lay within 50 to 200 nM. Under `CCOc1c(C(C)n2nc(CN(C)C)c3c(N)ncnc32)cc(Cl)c(C)c1-c1ccc(C(=O)N(C)C)nc1` (racemic) [Example 85, 5-[3-(1-{4-Amino-3-[(dimethylamino)methyl]-1H-pyrazolo[3,4-d]pyrimidin-1-yl}ethyl)-5-chloro-2-ethoxy-6-methylphenyl]-N,N-dimethylpyridine-2-carboxamide tris(trifluoroacetate)] stands 50 to 200 nM. In the case of `CCOc1c(C(C)n2nc(CF)c3c(N)ncnc32)cc(Cl)c(C)c1-c1ccc(C(=O)N(C)C)nc1` (racemic) [Example 86, 5-(3-{1-[4-Amino-3-(fluoromethyl)-1H-pyrazolo[3,4-d]pyrimidin-1-yl]ethyl}-5-chloro-2-ethoxy-6-methylphenyl)-N,N-dimethylpyridine-2-carboxamide bis(trifluoroacetate)] it was at most 10 nM; in that of `CCOc1c(C(C)n2nc(C)c3c(N)ncnc32)cc(Cl)c(C)c1C1CN(CCO)C1` (racemic) [Example 95, 2-(3-{3-[1-(4-Amino-3-methyl-1H-pyrazolo[3,4-d]pyrimidin-1-yl)ethyl]-5-chloro-2-ethoxy-6-methylphenyl}azetidin-1-yl)ethanol bis(trifluoroacetate)], at most 10 nM; in that of `COc1c(C(C)n2nc(-c3cnn(C)c3)c3c(N)ncnc32)cc(Cl)c(C)c1C1CN(CC#N)C1` (racemic) [Example 125, [3-(3-{1-[4-Amino-3-(1-methyl-1H-pyrazol-4-yl)-1H-pyrazolo[3,4-d]pyrimidin-1-yl]ethyl}-5-chloro-2-methoxy-6-methylphenyl)azetidin-1-yl]acetonitrile bis(trifluoroacetate)], at most 10 nM.

Consider `CCOc1c(C(C)n2nc(C)c3c(N)ncnc32)cc(Cl)c(F)c1C1CN(C)C1` (racemic) [Example 145, 1-{1-[5-Chloro-2-ethoxy-4-fluoro-3-(1-methylazetidin-3-yl)phenyl]ethyl}-3-methyl-1H-pyrazolo[3,4-d]pyrimidin-4-amine], for which the IC50 is at most 10 nM.

As to `CCOc1c(C(C)n2nc(C)c3c(N)ncnc32)cc(Cl)c(F)c1C1CN(CC)C1` (racemic) [Example 146, 1-{1-[5-Chloro-2-ethoxy-3-(1-ethylazetidin-3-yl)-4-fluorophenyl]ethyl}-3-methyl-1H-pyrazolo[3,4-d]pyrimidin-4-amine], the IC50 was at most 10 nM. In the case of `CCOc1c(C(C)n2nc(C(F)F)c3c(N)ncnc32)cc(Cl)c(F)c1C1CN(C(C)C)C1` (racemic) [Example 150, 1-{1-[5-Chloro-2-ethoxy-4-fluoro-3-(1-isopropylazetidin-3-yl)phenyl]ethyl}-3-(difluoromethyl)-1H-pyrazolo[3,4-d]pyrimidin-4-amine] it was at most 10 nM. Under `CCOc1c(C(C)n2nc(C(F)F)c3c(N)ncnc32)cc(Cl)c(F)c1C1CN(C)C1` (racemic) [Example 151, 1-{1-[5-Chloro-2-ethoxy-4-fluoro-3-(1-methylazetidin-3-yl)phenyl]ethyl}-3-(difluoromethyl)-1H-pyrazolo[3,4-d]pyrimidin-4-amine] stands at most 10 nM; under `CCOc1c(C(C)n2nc(C(F)F)c3c(N)ncnc32)cc(Cl)c(F)c1C1CN(CCO)C1` (racemic) [Example 152, 2-[3-(3-{-1-[4-Amino-3-(difluoromethyl)-1H-pyrazolo[3,4-d]pyrimidin-1-yl]ethyl}-5-chloro-2-ethoxy-6-fluorophenyl)azetidin-1-yl]ethanol], at most 10 nM.

(Values after patent US9707233B2, “Heterocyclylamines as PI3K inhibitors” (Incyte Corporation, priority 2011, dated 2017).)
